One data set has as its target DNA topoisomerase II. Description: DNA topoisomerase inhibition activity (DNA relaxation, agarose-gel electrophoresis). Format: biochemical, murine. Particulars: relaxation of supercoiled pBR 322 plasmid DNA, 37°C for 10 minutes, enzyme from L1210 nuclei. The protocol: (§1) In this experiment, as enzymes were used DNA topoisomerase I and DNA topoisomerase II obtained by purifying an extract from the nuclei of cells of L1210 murine leukemia by column chromatography using hydroxylapatite and phosphocellulose, respectively, and as a DNA was used supercoiled pBR 322 plasmid DNA.
(§2) Measurement of inhibition effect was made by the method disclosed in a literature, i. e. Okura et al., Biochem. Biophys. Res. Comm. 157, 183 - 189, 1988, namely by warming at 37°C for 10 minutes the supercoiled DNA in DNA topoisomerase I or DNA topoisomerase II solutions containing a drug in various concentrations, and then detecting the resultant topology changes of the DNA as changes of the electrophoretic images in agarose - gel electrophoresis.

A further data set has as its target T1, DNA topoisomerase I (Mus musculus, UniProt Q04750).
T1 construct: obtained by purifying an extract from the nuclei of cells of L1210 murine leukemia by column chromatography; endogenous in cells; host or cells: L1210 murine leukemia cells (nuclear extract, purified on hydroxylapatite / phosphocellulose columns)
T1 sequence (Q04750 1-767): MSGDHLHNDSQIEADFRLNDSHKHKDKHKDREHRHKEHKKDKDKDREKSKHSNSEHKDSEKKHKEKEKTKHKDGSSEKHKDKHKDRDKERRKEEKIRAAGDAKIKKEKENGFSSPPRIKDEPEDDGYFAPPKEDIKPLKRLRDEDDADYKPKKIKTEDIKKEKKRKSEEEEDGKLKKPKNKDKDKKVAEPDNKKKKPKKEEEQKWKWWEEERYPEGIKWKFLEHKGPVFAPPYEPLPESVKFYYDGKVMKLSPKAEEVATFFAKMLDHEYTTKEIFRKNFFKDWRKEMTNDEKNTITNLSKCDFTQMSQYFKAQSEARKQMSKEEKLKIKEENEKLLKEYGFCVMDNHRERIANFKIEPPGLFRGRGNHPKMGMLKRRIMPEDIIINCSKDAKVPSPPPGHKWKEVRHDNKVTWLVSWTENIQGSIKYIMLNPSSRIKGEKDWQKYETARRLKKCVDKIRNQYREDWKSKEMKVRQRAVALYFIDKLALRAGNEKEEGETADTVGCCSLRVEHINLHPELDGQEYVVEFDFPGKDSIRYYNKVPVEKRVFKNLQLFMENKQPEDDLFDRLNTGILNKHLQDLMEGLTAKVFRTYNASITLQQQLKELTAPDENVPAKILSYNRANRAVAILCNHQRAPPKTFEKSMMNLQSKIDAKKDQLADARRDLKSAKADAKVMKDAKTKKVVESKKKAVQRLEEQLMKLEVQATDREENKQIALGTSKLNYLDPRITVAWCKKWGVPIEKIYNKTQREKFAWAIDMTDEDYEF
The data set is described as above. The following applies: relaxation of supercoiled pBR 322 plasmid DNA, 37°C for 10 minutes, enzyme from L1210 nuclei; read-out: IC₅₀ DNA topoisomerase I (converted). Format: biochemical, murine. How it is done:
as §1, §2

The next data set relates to L1210. Description: Life-span prolonging effect on L1210 leukemia-bearing mice. In kind it is in vivo, CDF₁ mice. How it is done:
(§3) In this experiment, 10⁶ L1210 cells or 10⁴ P388 cells were intraperitoneally transplanted into CDF₁ mice (♀, 5 weeks old), a drug in the various concentrations was intraperitoneally injected once a day for continuous 10 days from the day after the transplantation, and survival periods after the tumor transplantation were recorded.

The nature of data set [1]: Acute toxicity against a mouse. Format: in vivo, CDF₁ mice. Particulars: 5 mg/kg intravenously, observation for one week. The protocol: 5 mg/kg portions of the compound of Example 9 were intravenously injected into CDF₁ mice (♀, 5 weeks old) according to a conventional manner, respectively.
A further data set concerns P388. Description: Life-span prolonging effect on P388 leukemia-bearing mice. Format: in vivo, CDF₁ mice. How it is done: as §3
A further data set concerns P388/VCR. Nature of the data set: Proliferation inhibition, multiple drug-resistant P388 cells (MTT method). In kind it is cell-based, murine. The following applies: Mus musculus, 72 h, 3 days culture, read-out: IC₅₀ P388/VCR. How it is done:
(§4) Proliferation inhibition effects againt P388/multiple drug - resistant cells were measured using vincristine and adriamycin as comparative compounds.
(§5) In this experiment, a drug - sensitive strain (P388/S) of a murine leukemia cell P388 and a drug - resistant strain (P388/VCR, T. Turuo, H. Iida, S. Tsukagoshi, et al., Cancer Research 42, 4730 - 4733, 1982) were suspended respectively in RPMI 1640 media containing a drug in various concentrations, 10 % fetal bovine serum and 20 µ M β - mercaptoethanol, respectively, and seeded in a 96 - well microtest plate in a number of 10⁴ cells/well, and cultured at 37°C under CO₂ gas for 3 days. Calculation of 50% proliferation inhibition concentration (IC₅₀) was made by the MTT method (M. C. Alley, D. A. Scudiero, A. Monks, et al., Cancer Research 48, 589 - 601, 1988).
(In general: Tetrazolium dyes change colour on reduction, which living cells bring about.)

A further data set relates to P388/V. Description: Proliferation inhibition, drug-sensitive P388 cells (MTT method). Format: cell-based, murine. Particulars: Mus musculus, P388, 72 h, 3 days culture, read-out: IC₅₀ P388/V. The protocol:
as §4, §5

In another data set the test system is L1210 cells. Nature of the data set: In vitro cytotoxicity against L1210 murine leukemia (proliferation inhibition). Particulars: Mus musculus, 72 h; L1210 cells, cultured 3 days, Coulter counter; read-out: IC₅₀. Format: cell-based. How it is done:
In this experiment, respective 2 × 10⁴ L1210 cells were cultured at 37°C under 5% CO₂ gas for 3 days in respective RPMI 1640 media containing a drug in various concentrations and 10 % fetal bovine serum, and the numbers of the cells after the culture were counted using a Coulter counter.

[2] abbreviates: dose 0.020 mg/kg intraperitoneally once a day for 10 days.
[3] abbreviates: dose 0.078 mg/kg intraperitoneally once a day for 10 days.
The mark [4] stands for this setting: dose 0.313 mg/kg intraperitoneally once a day for 10 days.

The structures appear in SMILES notation.

Here are results for one compound from patent EP0516861A1, “PYRIDONECARBOXYLIC ACID DERIVATIVE” (BANYU PHARMACEUTICAL CO., LTD., priority 1990, dated 1992).

Consider `Cl.N[C@@H]1C=CC[C@@H]2CN(c3c(F)cc4c(=O)c(C(=O)O)cn(C5CC5)c4c3F)C[C@@H]21` (single isomer, unassigned) [Compound of Ex.9, (-) - 7 - [(1R*, 2R*, 6S*) - 2 - amino - 8 - azabicyclo [4.3.0]non - 3 - en - 8 - yl] - 1 - cyclopropyl - 6, 8 - difluoro - 1, 4 - dihydro - 4 - oxo - 3 - quinolinecarboxylic acid hydrochloride], for which the “IC₅₀ DNA topoisomerase II” value on DNA topoisomerase II was determined as 2 µg/mL. For the same compound, the IC50 was 457 µM on DNA topoisomerase I, 0.018 µg/mL with P388/VCR, 0.018 µg/mL in the data set with P388/V and 0.019 µg/mL in the data set with L1210 cells. In addition, the “Mean survival days L1210” value with L1210 (setting [2]) is given as 31.0 days; in the data set on L1210 (setting [3]), 32.4 days; with L1210 (setting [4]), 21.2 days. In addition, the entries for the “T/C % L1210” value in the data set on L1210 (setting [2]), in the data set with L1210 (setting [3]) and with L1210 (setting [4]) were 226%, 236% and 155%, respectively. The “effect at an administration quantity of 0.02 mg/kg” value in the data set with L1210 (life-span prolongation, 0.02 mg/kg intraperitoneal) is listed as “effective”. For the same compound, the “death in acute toxicity test” value in data set [1] is recorded as “No case of death”. The “Mean survival days P388” value came out at 12.0 days with P388 (setting [2]), 14.0 days in the data set on P388 (setting [3]) and 16.4 days in the data set with P388 (setting [4]). Also, the “T/C % P388” value is given as 107% in the data set on P388 (setting [2]), 125% in the data set with P388 (setting [3]) and 146% in the data set with P388 (setting [4]).
